This note sets out measurements from US8450522B2, “Conformationally constrained carboxylic acid derivatives useful for treating metabolic disorders” (Amgen Inc., priority 2008, dated 2013).

Broadly, the EC50 is the midpoint of the concentration-response curve.

The target in experiment [1] is T1, GPR40 (Homo sapiens, UniProt O14842). Put plainly: Competition binding assay on A9 membranes expressing GPR40. Also on record: expressed in transfected cells; host or cells: membranes of A9 cells expressing GPR40. The conditions noted are these: 5 nM [3H] labeled Comparative Compound 1, 4 hours at room temperature. As for the experimental part:
Competition binding assays were performed on A9 membranes expressing GPR40.

For experiment [2], the target named is T1, GPR40. Put plainly: Cell-based aequorin assay (CHO cells stably transfected with GPR40 and aequorin). The conditions noted are these: activation of human GPR40, CHO cells, 0.01% HSA. Details: expressed in transfected cells. The method, then: Briefly, the Aequorin assays were performed on doubly stable CHO cells expressing GPR40 and Aequorin DNA. […] The luminescence was recorded over a period of 20 seconds with a Microlumat luminometer (Berthold).
Cell-based aequorin assays were employed to characterize the modulatory activity of compounds on the GPR40 signaling pathway. In an exemplary assay, CHO cells were stably transfected with both GPR40 and Aequorin (Euroscreen). Cells were detached from the tissue culture dish with 2 mL of trypsin (0.25% (w/v)). Trypsinization was halted with 28 mL of Hanks Buffered Salt Solution containing 20 mM Hepes (H/HBSS) and 0.01% fatty acid-free human serum albumin (HSA). Coelantrazine is added to 1 ug/mL, and the cells were incubated for 2 hours at room temperature. Compounds were dissolved in DMSO for preparation of 10 mM stock solutions. Compounds were diluted in H/HBSS containing 0.01% HSA. Serial dilutions of the test compounds were prepared to determine dose response.
Aequorin luminescence measurements were made using an EG&G Berthold 96-well luminometer, and the response was measured over a 20 second interval after cells and compounds were mixed. The maximum relative light units was plotted to determine dose response. The EC50 (effective concentration to reach 50% maximal response) was determined from the dose response plot.

Experiment [3] has as its target T1, GPR40. The experiment can be described thus: Inositol phosphate accumulation assay (A9 cell line stably transfected with GPR40). The experiment is classed as cell-based. Details: expressed in transfected cells. The settings on record: human GPR40, A9_GPR40 cells, 1 hour at 37° C.; read-out: IP3 EC50 (inositol phosphate assay data). As for the experimental part:
An A9 cell line stably transfected with GPR40 (A9_GPR40) was used in IP accumulation assays. A9_GPR40 cells were plated in 96-well plates containing 20,000 cells/well in DMEM containing 10% FBS. After the cells attached to the well surface, the media was replaced with inositol free DMEM containing 10% dialyzed FBS and 1 μCi, mL ^3H-inositol and incubated for 16 hours. Compounds were diluted in HBSS/10 mM LiCl containing a desired amount of HSA and added directly to cells. Following 1 hour incubation at 37° C., the media was replaced with 100 μl of 20 mM formic acid to quench the reaction. 50 μL of the extract was then added to 100 μL of SPA beads, incubated overnight, and measured on a TopCount the following day.

Entries after “also recorded” stand apart in the source; their conditions may differ.

T1 sequence (O14842 whole entry): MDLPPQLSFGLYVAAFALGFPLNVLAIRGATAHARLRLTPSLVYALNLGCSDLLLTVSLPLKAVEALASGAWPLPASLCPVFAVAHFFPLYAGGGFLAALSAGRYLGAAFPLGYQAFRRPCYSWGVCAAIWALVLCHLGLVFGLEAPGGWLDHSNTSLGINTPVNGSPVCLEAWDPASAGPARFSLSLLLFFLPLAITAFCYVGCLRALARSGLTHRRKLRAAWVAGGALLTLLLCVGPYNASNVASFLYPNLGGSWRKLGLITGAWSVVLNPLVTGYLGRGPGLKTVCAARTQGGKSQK

For `COc1ccc(F)c(-c2ccc(COc3ccc4c(c3)[C@@H](CC(=O)O)CC4)cc2C(C)(C)C)c1` (single isomer, unassigned) [Example 1, ((1R)-6-(((2-(1,1-Dimethylethyl)-2′-fluoro-5′-(methyloxy)-1,1′-biphenyl-4-yl)methyl)oxy)-2,3-dihydro-1H-inden-1-yl)acetic acid or ((1S)-6-(((2-(1,1-Dimethylethyl)-2′-fluoro-5′-(methyloxy)-1,1′-biphenyl-4-yl)methyl)oxy)-2,3-dihydro-1H-inden-1-yl)acetic acid], at GPR40 [1], the “displacement of 3H-labeled Comparative Compound 1” value is reported as “did not displace” and the “effect on binding of the radioligand (3H-labeled Comparative Compound 1) to the receptor” value is on record as “enhanced the total binding; also recorded: enhanced the binding of the radioligand”. Also, at GPR40 [2], the 50% effective concentration (EC50) is 1000 to 10000 nM.
Consider `COc1cc(-c2ccc(COc3ccc4c(c3F)[C@@](C)(CC(=O)O)CC4)cc2[C@@H](OC)C(C)(C)C)c(F)cn1` (single isomer, unassigned) [Example 39, {(R)-7-Fluoro-6-[4-(5-fluoro-2-methoxy-pyridin-4-yl)-3-((S)-1-methoxy-2,2-dimethyl-propyl)-benzyloxy]-1-methyl-indan-1-yl}-acetic acid or stereoisomer thereof], for which the half-maximal effective concentration (EC50) on GPR40 [3] lay in the range of 10 to 100 nM; at GPR40 [2], 100 to 1000 nM.
With `CC[C@]1(CC(=O)O)CCc2ccc(OCc3ccc(-c4cc(OC)ccc4F)c([C@H]4CCCC4(C)C)c3)cc21` (single isomer, unassigned) [Example 42], the EC50 was 10 to 100 nM at GPR40 [3] and 100 to 1000 nM on GPR40 [2].
Taken in the same sequence, the figures for `CC[C@]1(CC(=O)O)CCc2ccc(OCc3ccc(-c4cc(OC)ncc4F)c([C@H]4CCCC4(C)C)c3)cc21` (single isomer, unassigned) [Example 43] were 10 to 100 nM and 100 to 1000 nM.
Consider `CC[C@]1(CC(=O)O)CCc2ccc(OCc3ccc(-c4cc(OC)ccc4F)c([C@@H](OC)C(C)(C)C)c3)cc21` (single isomer, unassigned) [Example 44], for which the values for the EC50 at GPR40 [3] and at GPR40 [2] were 10 to 100 nM and 100 to 1000 nM, respectively.
For `CC[C@]1(CC(=O)O)CCc2ccc(OCc3ccc(-c4cc(OC)ccc4F)c([C@@H](OC)C(C)(C)C)c3)cc21` (single isomer, unassigned) [Example 45], the EC50 on GPR40 [3] and on GPR40 [2] was 100 to 1000 nM in each case.
For the compound `COc1cc(-c2ccc(COc3ccc4c(c3)[C@@H](CC(=O)O)CCC4)cc2[C@H]2CCCC2(C)C)c(F)cn1` (single isomer, unassigned) [Example 46], the EC50 at GPR40 [3] was in the range of 10 to 100 nM; at GPR40 [2] it was 100 to 1000 nM.
Taken in the same sequence, the figures for `COc1cc(-c2ccc(COc3ccc4c(c3)[C@@](C)(CC(=O)O)CCC4)cc2[C@H]2CCCC2(C)C)c(F)cn1` (single isomer, unassigned) [Example 48] were 10 to 100 nM and 100 to 1000 nM.
Regarding `COc1ccc(F)c(-c2ccc(COc3ccc4c(c3)[C@H]([C@@H](C)C(=O)O)CC4)cc2C2=CCCC2(C)C)c1` [Example 14], the figures for the half-maximal effective concentration (EC50) on GPR40 [3] and on GPR40 [2] were 10 to 100 nM and 100 to 1000 nM, respectively.
For the compound `COc1ccc(F)c(-c2ccc(COc3ccc4c(c3)[C@H]([C@@H](C)C(=O)O)CC4)cc2[C@H]2CCCC2(C)C)c1` [Example 15], the EC50 on GPR40 [3] lay in the range of 10 to 100 nM; on GPR40 [2], 100 to 1000 nM.
Taken in the same sequence, the figures for `COc1cc(-c2ccc(COc3ccc4c(c3F)C(C)(CC(=O)O)CC4)cc2C2CCCC2(C)C)c(F)cn1` [Example 40, {(S)-6-[3-((S)-2,2-Dimethyl-cyclopentyl)-4-(5-fluoro-2-methoxy-pyridin-4-yl)-benzyloxy]-7-fluoro-1-methyl-indan-1-yl}-acetic acid or stereoisomer thereof] were 100 to 1000 nM and 100 to 1000 nM.
